According to US20050004126A1 (priority 2001, published 2005):
Several values for one entry are separate records, joined by “and”; a condition that tells them apart may be missing. Equal entries are not always repeated. Structures can show the parent of a compound that is named as a salt. Where two headings read alike, the source gives them in different places.

Experiments:
[1] = target: T1, MMP-1FL (full-length interstitial collagenase) (Homo sapiens, UniProt P03956); test: Thiopeptolide hydrolysis assay, MMP-1; assay type: biochemical; settings: read-out: MMP01 IC50
T1 sequence (P03956 100-469): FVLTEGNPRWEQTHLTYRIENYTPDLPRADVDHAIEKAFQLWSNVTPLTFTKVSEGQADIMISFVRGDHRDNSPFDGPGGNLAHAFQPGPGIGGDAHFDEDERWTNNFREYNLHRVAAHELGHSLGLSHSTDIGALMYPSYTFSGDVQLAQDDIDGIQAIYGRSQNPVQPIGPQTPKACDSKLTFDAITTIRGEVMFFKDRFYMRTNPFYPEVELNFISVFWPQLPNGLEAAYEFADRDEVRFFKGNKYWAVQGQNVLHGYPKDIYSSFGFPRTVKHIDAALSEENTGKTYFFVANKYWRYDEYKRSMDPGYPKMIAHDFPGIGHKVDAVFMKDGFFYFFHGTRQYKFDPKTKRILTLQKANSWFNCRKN

[2] = target: MMP-13CD (catalytic domain of collagenase 3) (Homo sapiens, UniProt P45452); test: Thiopeptolide hydrolysis assay, MMP-13;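 note: inhibition of enzymatic thiopeptolide substrate cleavage (100 µM) in pH 6.0 MES buffer with CaCl2 and DTNB, comparing hydrolysis with versus without inhibitor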
Protocol: (§1) They measure the amount by which a test compound reduces the hydrolysis of a thiopeptolide substrate caused by a matrix metalloproteinase enzyme.
(§2) Thiopeptolide substrates show virtually no decomposition or hydrolysis in the absence of a matrix metalloproteinase enzyme. A typical thiopeptolide substrate commonly utilized for assays is Ac-Pro-Leu-Gly-thioester-Leu-Leu-Gly-OEt. A 100 μL assay mixture will contain 50 mM of 2-morpholinoethane sulfonic acid monohydrate (MES, pH 6.0) 10 mM CaCl2, 100 μM thiopeptolide substrate, and 1 mM 5,5′-dithio-bis-(2-nitro-benzoic acid) (DTNB). […] Assays are carried out with and without matrix metalloproteinase inhibitor compounds, and the amount of hydrolysis is compared for a determination of inhibitory activity of the test compounds.

[3] = target: MMP-3CD (catalytic domain of stromelysin) (Homo sapiens, UniProt P08254); test: Thiopeptolide hydrolysis assay, MMP-3; assay type: biochemical; settings: read-out: MMP03 IC50;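 note: inhibition of thiopeptolide substrate (100 µM) cleavage by the MMP-3 catalytic domain, detected with DTNB at pH 6.0 with CaCl2, hydrolysis compared against runs lacking inhibitor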
Chain of MMP-3CD (catalytic domain of stromelysin) (P08254 100-272 limits assumed): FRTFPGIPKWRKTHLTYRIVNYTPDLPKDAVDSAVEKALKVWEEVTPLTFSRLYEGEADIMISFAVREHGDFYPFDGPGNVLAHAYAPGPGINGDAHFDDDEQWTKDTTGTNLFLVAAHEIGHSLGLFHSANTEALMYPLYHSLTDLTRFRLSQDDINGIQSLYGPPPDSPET
Protocol: as §1, §2

| SMILES | IC50 ([2]; IC50 μM, Table V, MMP-13) [nM] | IC50 ([2]; IC50 μM, Table VII, MMP-13) [nM] | further results |
| --- | --- | --- | --- |
| O=C(Nc1cccc(CO)c1)c1cccc(C(=O)Nc2cccc(CO)c2)c1 [N,N′-Bis-(3-hydroxymethyl-phenyl)-isophthalamide] | – | – | IC50 ([1]; Table II): > 100000 nM; IC50 ([2]; MMP13 IC50 (nM), Table II): 7800 nM |
| O=C(NCc1ccncc1)c1ccc2c(c1)c(=O)n(C/C=C/c1ccncc1)c1nncn21 [N-(pyridin-4-ylmethyl) 4-[3-(pyridin-4-yl)-2-propen-1-yl]-5-oxo-4H-[1,2,4]triazolo[4,3-a]quinazol-7-ylcarboxamide] | 350 | – | – |
| N#Cc1ccc(Cn2c(=O)c3cc(C(=O)NCc4ccncc4)ccc3n3cnnc23)cc1 [N-(pyridin-4ylmethyl)-4-(4-cyanobenzyl)-5-oxo-4H-[1,2,4]triazolo[4,3-a]quinazol-7-ylcarboxamide] | 21 | – | – |
| O=C(NCCCSc1ccncc1)c1ccc2c(c1)c(=O)n(Cc1ccccc1)c1nncn21 [N-[3-(4-Pyridylsulphanyl)propyl]-4-benzyl-5-oxo-4,5-dihydro[1,2,4]triazolo[4,3-a]quinazoline-7-carboxamide] | 185 | – | – |
| Cc1c(=O)n(Cc2ccc(C(=O)O)cc2)c(=O)n2cc(C(=O)NCc3ccc(F)cc3)sc12 [Sodium Salt] | – | – | IC50 ([3]; Table 1b): 55500 nM; IC50 ([2]; MMP13 IC50 (μM), Table 1b): 2 nM |
| O=C(NCc1ccc2c(c1)OCO2)c1cccc(C(=O)NCc2ccc3c(c2)OCO3)c1 [Synthesis Example 11, N,N-Bis-1,3-benzodioxol-5-ylmethyl-isophthalamide] | – | – | IC50 ([3]; Table II): 69000 nM and 81000 nM; IC50 ([2]; MMP13 IC50 (nM), Table II): 330 nM and 683 nM |
| O=C(OCc1ccccc1)c1ccc2c(c1)c(=O)n(Cc1ccccc1)c1nncn21 [Synthesis Example 55, Benzyl 4-benzyl-5-oxo-4H-[1,2,4]triazolo[4,3-a]quinazol-7-ylcarboxylate] | 3.4 | – | – |
| O=C(OCc1ccncc1)c1ccc2c(c1)c(=O)n(Cc1ccccc1)c1nncn21 [Synthesis Example 56, 4-Pyridylmethyl 4-benzyl-5-oxo-4H-[1,2,4]triazolo[4,3-a]quinazol-7-yl-carboxylate] | 2.3 | – | – |
| O=C(NCc1ccc2c(c1)OCO2)c1ccc2c(c1)c(=O)n(Cc1ccccc1)c1nncn21 [Synthesis Example 57, N-(3,4-Methylenedioxybenzyl)-4-benzyl-5-oxo-4H-[1,2,4]triazolo[4,3-a]quinazol-7-ylcarboxamide] | 4 | – | – |
| N#Cc1ccc(Cn2c(=O)c3cc(C(=O)NCc4ccc5c(c4)OCO5)ccc3n3cnnc23)cc1 [Synthesis Example 58, N-(3,4-Methylenedioxybenzyl)-4-(4-cyanobenzyl)-5-oxo-4H-[1,2,4]triazolo[4,3-a]quinazol-7-ylcarboxamide] | 2.3 | – | – |
| COc1ccc(CNC(=O)c2ccc3c(c2)c(=O)n(Cc2ccc(C(=O)O)cc2)c2nncn32)cc1 [Synthesis Example 60, 4-{7-[(4-Methoxybenzyl)-carbamoyl]-5-oxo-5H-[1,2,4]triazolo[4,3-a]quinazol-4-ylmethyl}benzoic acid] | 1.1 | – | – |
| COC(=O)c1ccc(Cn2c(=O)c3cc(C#CCc4ccc(OC)cc4)ccc3n(C)c2=O)cc1 [Synthesis Example 66, Methyl 4-{6-[3-(4-methoxyphenyl)-prop-1-ynyl]-1-methyl-2,4-dioxo-1,4-dihydro-2H-quinazolin-3-ylmethyl}-benzoate] | – | 10 | – |
| COc1ccc(CC#Cc2ccc3c(c2)c(=O)n(Cc2ccc(C(=O)O)cc2)c(=O)n3C)cc1 [Synthesis Example 68, 4-{6-[3-(4-Methoxy-phenyl)-prop-1-ynyl]-1-methyl-2,4-dioxo-1,4-dihydro-2H-quinazolin-3-ylmethyl}-benzoic acid] | – | 0.6 | – |
| Cn1c(=O)n(Cc2ccc(C(=O)O)cc2)c(=O)c2cc(C#CCc3ccccc3)ncc21 [Synthesis Example 69, 4-[1-Methyl-2,4-dioxo-6-(3-phenyl-prop-1-ynyl)-1,4-dihydro-2H-pyrido[3,4-d]pyrimidin-3-ylmethyl]-benzoic acid] | – | 6.5 | – |
| COc1ccc(CC#Cc2cc3c(=O)n(Cc4ccc(C(=O)O)cc4)c(=O)n(C)c3cn2)cc1 [Synthesis Example 70, 4-{6-[3-(4-Methoxy-phenyl)-prop-1-ynyl]-1-methyl-2,4-dioxo-1,4-dihydro-2H-pyrido[3,4-d]pyrimidin-3-ylmethyl}-benzoic acid] | – | 1.2 | – |
| O=c1c2cc(C#CCc3ccccc3)ccc2n2cnnc2n1Cc1ccccc1 [Synthesis Example 71, 4-Benzyl-7-(3-phenyl-prop-1-ynyl)-4H-[1,2,4]triazolo[4,3-a]quinazolin-5-one] | – | 5.5 | – |
| COc1ccc(CC#Cc2ccc3c(c2)c(=O)n(Cc2ccccc2)c2nncn32)cc1 [Synthesis Example 72, 4-Benzyl-7-[(4-methoxyphenyl)-prop-1-ynyl]-4H-[1,2,4]-triazolo[4,3-a]quinazolin-5-one] | – | 1.5 | – |
| COC(=O)c1ccc(Cn2c(=O)c3cc(C#CCc4ccc(OC)cc4)ccc3n3cnnc23)cc1 [Synthesis Example 73, Methyl 4-{7-[3-(4-methoxy-phenyl)-prop-1-ynyl]-5-oxo-5H-[1,2,4]triazolo[4,3-a]quinazolin-4-ylmethyl}-benzoate] | – | 1.7 | – |
| O=C(O)c1ccc(Cn2c(=O)c3cc(C#CCc4ccccc4)ccc3n3cnnc23)cc1 [Synthesis Example 74, 4-[5-Oxo-7-(3-phenyl-prop-1-ynyl)-5H-[1,2,4]triazolo[4,3-a]quinazolin-4-ylmethyl]-benzoic acid] | – | 1 | – |
| Cn1c(=O)n(Cc2ccc(C(=O)O)cc2)c(=O)c2cc(C#Cc3ccccc3)ccc21 [Synthesis Example 75, 4-(1-Methyl-2,4-dioxo-6-(2-phenylethynyl)-1,4-dihydro-2H-quinazolin-3-ylmethyl)-benzoic acid] | – | 1340 | – |
| COc1ccc(CNC(=O)c2cn3c(=O)n(Cc4ccccc4)c(=O)c(C)c3s2)cn1 [hydrochloride] | – | – | IC50 ([3]; Table 1b): 20500 nM; IC50 ([2]; MMP13 IC50 (μM), Table 1b): 20.8 nM |
| Cc1c(=O)n(Cc2ccccc2)c(=O)n2cc(C(=O)NCc3cccnc3)sc12 [hydrochloride] | – | – | IC50 ([1]; Table 1b): > 30000 nM; IC50 ([2]; MMP13 IC50 (μM), Table 1b): 260 nM |
